Structures can show the parent of a compound that is named as a salt.

One test has as its target T1, PPAR-α (Homo sapiens, UniProt Q07869).
T1 construct: expressed in transfected cells; host or cells: CV-1 (African green monkey kidney)
T1 sequence (Q07869 167-468): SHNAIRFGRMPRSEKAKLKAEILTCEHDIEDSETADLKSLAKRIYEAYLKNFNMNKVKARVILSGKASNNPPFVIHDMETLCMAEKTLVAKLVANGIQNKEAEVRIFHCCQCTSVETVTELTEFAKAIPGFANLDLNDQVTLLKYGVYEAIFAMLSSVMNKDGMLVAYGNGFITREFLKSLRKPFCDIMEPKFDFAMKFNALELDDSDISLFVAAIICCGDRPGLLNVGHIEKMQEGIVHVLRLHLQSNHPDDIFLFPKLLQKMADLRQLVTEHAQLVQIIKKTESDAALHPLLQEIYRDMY
Kind of test: Measurement of PPAR-α activity (GAL4 luciferase reporter assay in CV-1 cells). In kind it is cell-based. The settings on record: 100(A/B): A = maximum PPAR-α activity of test compound at 3, 10, 30 and 100 μM, B = activity of the compound of WO/2011/058154 at 100 μM, 18 to 20 hours. How it is done: The PPAR-α activity was measured according to the published article (THE JOURNAL OF BIOLOGICAL CHEMISTRY Vol. 270, No 0.22: 12953-12956, 1995).
Plasmids used for the PPAR-α activity measurement were constructed as follows. A luciferase expression plasmid (UAS×5-TK-Luc) used was obtained by introducing a sequence in which five yeast GAL4-binding sequences are linked in tandem into a portion upstream of a thymidine kinase promoter of pTAL-Luc (Takara Bio Inc., 6252-1). A PPAR-α receptor expression plasmid (hGR-GAL4-hPPARα) used was obtained by introducing a human GR N-terminal region (1-76aa), a yeast GAL4 DNA-binding region (1-147aa), and a PPARα ligand-binding region (167-468aa) between Not I and Sal I sites of pExchange-1 Core Vector (Invitrogen, 211176).
A reporter assay was conducted by the following method using African green monkey kidney-derived CV-1 cells. The CV-1 cells were seeded in a 96-well plate (Thermo Fisher Scientific K.K., 4938) at 2×10^4 cells/well by using a 10% FBS-containing DMEM (NACALAI TESQUE, INC., 0845874) medium. After culturing under conditions of 37° C. and 5% CO2 for 2 hours, the cells were transfected with the plasmids. The transfection was conducted by using Lipofectamine LTX (Invitrogen, 15338-100) according to the attached manual. The plasmid solution was prepared by adding a mixture solution of the luciferase expression plasmid and the PPAR-α receptor expression plasmid to OPTI-MEM I (Invitrogen, 11058-021). After the transfection, the test compound was added, and the cells were cultured at 37° C. in the presence of 5% CO2 for 18 to 20 hours. After the culturing, the luciferase activity was measured with Luminescensor JNR (ATTO) by using Bright-Glo (Promega, E2620).
The fold induction of PPAR-α by each test compound was calculated by the following method. A relative fold induction (%) of PPAR-α by the test compound was defined as 100 (A/B), where A represents the maximum value of the PPAR-α activities of the test compound at 3 μM, 10 μM, 30 μM, and 100 μM, and B represents the PPAR-α activity of the compound of WO/2011/058154 at 100 μM.
Background: In a reporter assay the amount or activity of a reporter protein is the signal.
On to `CSc1cc(F)c(F)cc1-c1ccc(OCc2cccc(C(=O)N3C(C(N)=O)CC[C@H]3C(=O)O)c2)cc1` (single isomer, unassigned) [Example 58, (2S,5S) or (2S,5R)-5-Carbamoyl-1-[3-[[4-(4,5-difluoro-2-methylsulfanyl-phenyl)phenoxy]methyl]benzoyl]pyrrolidine-2-carboxylic Acid], for which the “Relative fold induction (%) of PPAR α” value is listed as 7.8%.

Still in this test, the particulars now being: 100(A/B): A = maximum PPAR-α activity of test compound at 3, 10, 30 and 100 μM, B = activity of the compound of WO/2011/058154 at 100 μM, 18 to 20 hours, read-out: Relative fold induction (%) of PPAR α.
`CSc1cc(F)c(F)cc1-c1ccc(OCc2cccc(C(=O)N(CC(=O)O)Cc3nc(C)no3)c2)cc1` [Example 68, 2-[[3-[[4-(4,5-Difluoro-2-methylsulfanyl-phenyl)phenoxy]methyl]benzoyl]-[(3-methyl-1,2,4-oxadiazol-5-yl)methyl]amino]acetic Acid]: the Emax worked out at 35%.
On the same count and under the same terms, next, `CSc1cc(F)c(F)cc1-c1ccc(OCc2cccc(C(=O)N3C[C@H](C(N)=O)C[C@H]3C(=O)O)c2)cc1` [Example 61, (2S,4R)-4-Carbamoyl-1-[3-[[4-(4,5-difluoro-2-methylsulfanyl-phenyl)phenoxy]methyl]benzoyl]pyrrolidine-2-carboxylic Acid]: 17%; `CSc1cc(F)c(F)cc1-c1ccc(OCc2cccc(C(=O)N(CC(=O)O)Cc3ccccn3)c2)cc1` [Example 20, 2-[[3-[[4-(4,5-Difluoro-2-methylsulfanyl-phenyl)phenoxy]methyl]benzoyl]-(2-pyridylmethyl)amino]acetic Acid Trifluoroacetate]: 13%; `CSc1cc(F)c(F)cc1-c1ccc(OCc2cccc(C(=O)N(CC(=O)O)CC3CCCNC3)c2)cc1` (centres unmarked) [Example 50, 2-[[3-[[4-(4,5-Difluoro-2-methylsulfanyl-phenyl)phenoxy]methyl]benzoyl]-(3-piperidylmethyl)amino]acetic Acid Trifluoroacetate]: 4.8%.
Take `CN(C)CCN(CC(=O)O)C(=O)c1cccc(COc2ccc(-c3cc(F)c(F)c4ccoc34)cc2)c1` [Example 13, 2-[[3-[[4-(4,5-Difluorobenzofuran-7-yl)phenoxy]methyl]benzoyl]-(2-dimethylaminoethyl)amino]acetic Acid Trifluoroacetate]: the Emax is 5.3%.
On the same count and under the same terms, next, `CSc1cc(F)c(F)cc1-c1ccc(OCc2cccc(C(=O)N(CCS(=O)(=O)N(C)C)CC(=O)O)c2)cc1` [Example 59, 2-[[3-[[4-(4,5-Difluoro-2-methylsulfanyl-phenyl)phenoxy]methyl]benzoyl]-[2-(dimethylsulfamoyl)ethyl]amino]acetic Acid]: 10%; `CSc1cc(F)c(F)cc1-c1ccc(OCc2cccc(C(=O)N(CCn3cncn3)CC(=O)O)c2)cc1` [Example 70, 2-[[3-[[4-(4,5-Difluoro-2-methylsulfanyl-phenyl)phenoxy]methyl]benzoyl]-[2-(1,2,4-triazol-1-yl)ethyl]amino]acetic Acid]: 14%.
The same measure, in the same setting: to `CSc1cc(F)c(F)cc1-c1ccc(OCc2cccc(C(=O)N(CC(=O)O)Cc3ccncn3)c2)cc1` [Example 53, 2-[[3-[[4-(4,5-Difluoro-2-methylsulfanyl-phenyl)phenoxy]methyl]benzoyl]-(pyrimidin-4-ylmethyl)amino]acetic Acid] belongs 8.2%; to `CSc1cc(F)c(F)cc1-c1ccc(OCc2cccc(C(=O)N(CC(=O)O)Cc3ccn[nH]3)c2)cc1` [Example 54, 2-[[3-[[4-(4,5-Difluoro-2-methylsulfanyl-phenyl)phenoxy]methyl]benzoyl]-(1H-pyrazol-5-ylmethyl)amino]acetic Acid], 8.7%.
Same read-out and setting: to `CN(C)C(=O)CN(CC(=O)O)C(=O)c1cccc(COc2ccc(-c3cc(F)c(F)c4ccoc34)cc2)c1` [Example 11, 2-[[3-[[4-(4,5-Difluorobenzofuran-7-yl)phenoxy]methyl]benzoyl]-[2-(dimethylamino)-2-oxo-ethyl]amino]acetic Acid] belongs 7.4%.
As to `CNC(=O)CN(CC(=O)O)C(=O)c1cccc(COc2ccc(-c3cc(F)c(F)c4ccoc34)cc2)c1` [Example 15, 2-[[3-[[4-(4,5-Difluorobenzofuran-7-yl)phenoxy]methyl]benzoyl]-[2-(methylamino)-2-oxo-ethyl]amino]acetic Acid], the Emax worked out at 12%.
The same measure, in the same setting: next, `CSc1cc(F)c(F)cc1-c1ccc(OCc2cccc(C(=O)N(CCS(C)(=O)=O)CC(=O)O)c2)cc1` [Example 31, 2-[[3-[[4-(4,5-Difluoro-2-methylsulfanyl-phenyl)phenoxy]methyl]benzoyl]-(2-methylsulfonylethyl)amino]acetic Acid]: 8.4%; `CCN1CCC(CN(CC(=O)O)C(=O)c2cccc(COc3ccc(-c4cc(F)c(F)cc4SC)cc3)c2)CC1` [Example 38, 2-[[3-[[4-(4,5-Difluoro-2-methylsulfanyl-phenyl)phenoxy]methyl]benzoyl]-[(1-ethyl-4-piperidyl)methyl]amino]acetic Acid Trifluoroacetate]: 8.9%.
Same read-out and setting: next, `CSc1cc(F)c(F)cc1-c1ccc(OCc2cccc(C(=O)N(CC(=O)O)CC(=O)O)c2)cc1` [Example 27, 2-[Carboxymethyl-[3-[[4-(4,5-difluoro-2-methylsulfanyl-phenyl)phenoxy]methyl]benzoyl]amino]acetic Acid]: 10%; `O=C(O)CN(CC1CCNCC1)C(=O)c1cccc(COc2ccc(-c3cc(F)c(F)c4ccoc34)cc2)c1` [Example 12, 2-[[3-[[4-(4,5-Difluorobenzofuran-7-yl)phenoxy]methyl]benzoyl]-(4-piperidylmethyl)amino]acetic Acid Trifluoroacetate]: 4.7%.
On the same count and under the same terms, to `NC(=O)CCN(CC(=O)O)C(=O)c1cccc(COc2ccc(-c3cc(F)c(F)c4ccoc34)cc2)c1` [Example 79, 2-[(3-Amino-3-oxo-propyl)-[3-[[4-(4,5-difluorobenzofuran-7-yl)phenoxy]methyl]benzoyl]amino]acetic Acid] belongs 7.1%; to `CSc1cc(F)c(F)cc1-c1ccc(OCc2cccc(C(=O)N(CC(=O)O)Cc3cccnc3)c2)cc1` [Example 39, 2-[[3-[[4-(4,5-Difluoro-2-methylsulfanyl-phenyl)phenoxy]methyl]benzoyl]-(3-pyridylmethyl)amino]acetic Acid Trifluoroacetate], 22%.
As for `CSc1cc(F)c(F)cc1-c1ccc(OCc2cccc(C(=O)N(CC(N)=O)CC(=O)O)c2)cc1` [Example 10, 2-[(2-Amino-2-oxo-ethyl)-[3-[[4-(4,5-difluoro-2-methylsulfanyl-phenyl)phenoxy]methyl]benzoyl]amino]acetic Acid], the Emax came to 6.7%.
The same measure, in the same setting: next, `COC[C@H]1CC[C@@H](C(=O)O)N1C(=O)c1cccc(COc2ccc(-c3cc(F)c(F)cc3SC)cc2)c1` [Example 65, (2S,5R)-1-[3-[[4-(4,5-Difluoro-2-methylsulfanyl-phenyl)phenoxy]methyl]benzoyl]-5-(methoxymethyl)pyrrolidine-2-carboxylic Acid]: 7%.
Consider `CSc1cc(F)c(F)cc1-c1ccc(OCc2cccc(C(=O)N(CC(=O)O)[C@@H](C)C(N)=O)c2)cc1` [Example 22, 2-[[(1S)-2-Amino-1-methyl-2-oxo-ethyl]-[3-[[4-(4,5-difluoro-2-methylsulfanyl-phenyl)phenoxy]methyl]benzoyl]amino]acetic Acid], for which the Emax was 14%.
In the case of `CSc1cc(F)c(F)cc1-c1ccc(OCc2cccc(C(=O)N3[C@@H](CO)CC[C@H]3C(=O)O)c2)cc1` [Example 64, (2S,5R)-1-[3-[[4-(4,5-Difluoro-2-methylsulfanyl-phenyl)phenoxy]methyl]benzoyl]-5-(hydroxymethyl)pyrrolidine-2-carboxylic Acid], the Emax is 20%.
As to `CSc1cc(F)c(F)cc1-c1ccc(OCc2cccc(C(=O)N(CCNC(C)=O)CC(=O)O)c2)cc1` [Example 44, 2-[2-Acetamidoethyl-[3-[[4-(4,5-difluoro-2-methylsulfanyl-phenyl)phenoxy]methyl]benzoyl]amino]acetic Acid], the Emax was determined as 25%.

Source of the values: patent US20160046592A1, “PHARMACEUTICAL COMPOSITION FOR THE TREATMENT OF DIABETES” (Ajinomoto Co., Inc., priority 2013, published 2016).
